Assay results reported in US4264734A, “Process for producing antibiotic desacetyl 890A10” (Merck & Co., Inc., priority 1979, dated 1981).

How the values were obtained:
[1] = test system: Vibrio percolans ATCC 8461; assay: Assay for 890 Assay Units, agar plate disc-diffusion method, cephaloridine as standard; type: cell-based; details: 25 mm. zone of inhibition on a 5 ml. plate
Experimental: II. Assay Procedure for Determining "890 Assay Units" A conventional agar plate disc-diffusion method is employed using Vibrio percolans ATCC 8461 as tester organism. Cephaloridine is employed as a standard. Plates containing Vibrio percolans ATCC 8461 are prepared as follows. A culture of Vibrio percolans ATCC 8461 is incubated in nutrient broth-yeast extract overnight on a rotary shaker at 28° C. and then diluted to a density of 60% transmittance at 660 nm. A 33.2 ml. portion of this diluted culture is added to 1 liter of a medium composed of nutrient agar plus 0.2% yeast extract maintained at 46° C. The inoculated agar-containing medium is poured into 100×15 mm. plastic-petri dishes, 10 ml. per dish, chilled, and maintained at 2°-4° C. for up to 5 days before use. The concentration of cephaloridine which is equivalent to 1 unit/ml. of 890A1 is determined by assay on plates prepared as above, but containing 5 ml. of inoculated medium per plate, as follows. Four concentrations of cephaloridine constitute the standard--3.12, 6.25, 12.5 and 25 mcg per ml. with the 12.5 mcg per ml. as a reference solution. The zone diameters on a 5 ml. plate for the standard are as follows: A unit is defined as the amount of antibiotic per ml. producing a 25 mm. zone of inhibition on a 5 ml. plate as described in section I above. […]

[2] = test system: Staphylococcus aureus ATCC 6538P; assay: Electrophoresis followed by bioactivity on Staphylococcus aureus assay plate; type: cell-based; details: after incubation of 890A10 with cell sonicate and electrophoresis at pH 7.1; 37° C., 18 hours
Experimental: The flasks are shaken at 28° C. on a 220 rpm (2" throw) shaker for 4 days. A 30 ml. portion from each flask is centrifuged for 15 minutes at 8,000 rpm. The supernatant portion is removed, leaving only enough to form a thick suspension of cells and media solids. Half of the suspension is subjected to ultrasonic disruption using a Branson Instrument Model LS-75 Sonifier with a 1/2 inch probe. The input power is set at position No. 4, and four successive 15 second cycles of irradiation are used, while chilling the suspension in ice water during and between disruption. To test for the presence of N-acetyl-890A10 amidohydrolase activity, a 10-μl. portion of the sonicate is mixed with 25 μl. of an 890A10 solution containing 500 μg. per ml. Controls containing antibiotic and buffer alone; and sonicated cells and buffer without antibiotic are also run. After incubation overnight at 28° C., 10 μl. quantities are applied to Schleicher and Schuell No. 2043-B paper. Using 0.03 M potassium phosphate buffer pH 7.1, a voltage gradient of 50 volts/cm. is applied for 30 minutes. The paper is placed on a Staphylococcus aureus ATCC 6538P plate and incubated at 37° C. for 18 hours. […]
The flask is shaken at 28° C. on a 220 rpm (2-inch throw) shaker for four days. […] After incubation overnight at 28° C., 10-μl. quantities are applied to Schleicher & Schuell No. 2043-B paper. […]

[3] = Stability under acidic conditions in aqueous solution; type: physicochemical
[4] = test system: gram-positive and gram-negative bacteria; assay: Antibacterial activity (general statement); type: cell-based; details: no test values printed

stability under acidic conditions [3]	SMILES	concentration considered equivalent to 1 unit of 890A1 per ml [1]	bioactive spot on Staphylococcus aureus plate [2]	antibacterial activity [4]
–	O=C(Cc1cccs1)N[C@@H]1C(=O)N2C(C(=O)[O-])=C(C[n+]3ccccc3)CS[C@H]12 [cephaloridine]	12.5 mcg per ml.	–	–
unstable	CC(=O)NCCSC1=C(C(=O)O)N2C(=O)C(C(C)OS(=O)(=O)O)C2C1 (centres unmarked) [890A10]	–	bioactive	–
–	CC(OS(=O)(=O)O)C1C(=O)N2C(C(=O)O)=C(SCCN)CC12 (centres unmarked) [desacetyl 890A10]	–	bioactive	active against various gram-positive and gram-negative bacteria
